In patent US5585353A, “Antibiotic peptides containing D-amino acids” (The Rockefeller University, priority 1994, dated 1996):
Residues, ends and D or L forms follow the SMILES beside them. No end group written: not given here.

Experiments:
Format in all cases: cell-based
Sheep red cells = test: inhibition zone assay, lethal concentration on sheep red cells; details: thin agarose plates
Experimental: (§1) Thin agar or agarose plates (8.5 cm diameter) were prepared with 6 ml of rich medium containing 100 ug/ml of streptomycin and 2×10^5 viable cells of a test organism resistant to streptomycin. Wells of 3.5 mm diameter were punched in the plates and 3 ul of serially diluted samples were placed in the wells. The diameters of the zones of inhibition around the wells were measured after overnight incubation at 30° or 37° C. For each peptide the squares of the zone diameters were plotted against the logarithm of the concentration, and from the slopes and intercepts the lethal concentrations were calculated as described by Hultmark (1983) EMBO J. 2, 571-76 or Hultmark et al (1982) Eur. J. Biochem. 127 207-217 each of which being incorporated herein by reference.
(§2) Lethal Concentrations calculated from inhibition zones on thin agarose
(§3) S. aureus Cowan 1; Strep: S. pyogenes; SRC: Sheep red cells.; *all amino

S. aureus Cowan 1 = test: inhibition zone assay, lethal concentration; details: S. aureus Cowan 1, thin agarose plates
Experimental: as §1, §2
aeruginosa; Bs11: B. subtilis; +ME: plates prepared with medium E; Staph:
as §3

P. aeruginosa OT97 = test: inhibition zone assay, lethal concentration; details: P. aeruginosa OT97, thin agarose plates
Experimental: as §1, §2
(§4) plates seeded with the respective organisms. D21: E. coli; OT97: P.
(§5) aeruginosa; Bs11: B. subtilis; +ME: plates prepared with medium E; Staph: […]

B. subtilis Bs11 = test: inhibition zone assay, lethal concentration; details: for Lethal Concentrations Bs11 +ME: B. subtilis Bs11, plates prepared with medium E; for Lethal Concentrations Bs11: B. subtilis Bs11, thin agarose plates
Experimental: as §1, §2, §5

S. pyogenes = test: inhibition zone assay, lethal concentration; details: thin agarose plates
Experimental: as §1, §2, §3

E. coli D21 = test: inhibition zone assay, lethal concentration; details: E. coli D21, thin agarose plates
Experimental: as §1, §2, §4

Molecule	Lethal Concentrations SRC (Sheep red cells)	Lethal Concentrations Staph (S. aureus Cowan 1)	Lethal Concentrations OT97 (P. aeruginosa OT97)	Lethal Concentrations Bs11 +ME (B. subtilis Bs11)	Lethal Concentrations Bs11 (B. subtilis Bs11)	Lethal Concentrations Strep (S. pyogenes)	Lethal Concentrations D21 (E. coli D21)
CC[C@@H](C)[C@@H](NC(=O)CNC(=O)[C@@H](CCC(N)=O)NC(=O)CNC(=O)[C@H](NC(=O)[C@@H](CCCCN)NC(=O)[C@@H](CCC(=O)O)NC(=O)[C@H](NC(=O)[C@@H](CCCCN)NC(=O)[C@@H](CCCCN)NC(=O)[C@@H](Cc1ccccc1)NC(=O)[C@@H](CC(C)C)NC(=O)[C@@H](CCCCN)NC(=O)[C@@H](Cc1c[nH]c2ccccc12)NC(=O)[C@H](N)CCCCN)[C@H](C)CC)C(C)C)C(=O)NCC(=O)N[C@H](C)C(=O)N[C@@H](C(=O)N[C@H](CC(C)C)C(=O)N[C@H](CCCCN)C(=O)N[C@@H](C(=O)N[C@H](CC(C)C)C(=O)N[C@@H](C(=O)N[C@@H](C(=O)NCC(=O)N[C@H](CC(C)C)C(N)=O)[C@H](C)O)[C@H](C)O)C(C)C)C(C)C [Compound 4]	500 µM	–	–	–	–	–	–
CC[C@H](C)[C@H](NC(=O)CNC(=O)[C@@H](NC(=O)[C@H](CCCCN)NC(=O)[C@H](CCCCN)NC(=O)[C@H](Cc1ccccc1)NC(=O)[C@H](CC(C)C)NC(=O)[C@H](CCCCN)NC(=O)[C@H](Cc1c[nH]c2ccccc12)NC(=O)[C@@H](N)CCCCN)[C@@H](C)CC)C(=O)NCC(=O)N[C@@H](C)C(=O)N[C@H](C(=O)N[C@@H](CC(C)C)C(=O)N[C@@H](CCCCN)C(=O)N[C@H](C(=O)N[C@@H](CC(C)C)C(=O)N[C@H](C(=O)N[C@H](C(=O)NCC(=O)N[C@@H](CC(C)C)C(=O)N1CCC[C@H]1C(=O)N[C@@H](C)C(=O)N[C@@H](CC(C)C)C(=O)N[C@H](C(=O)N[C@@H](CO)C(N)=O)[C@@H](C)CC)[C@@H](C)O)[C@@H](C)O)C(C)C)C(C)C [Compound 6]	> 600 µM	–	–	–	–	–	–
CC[C@H](C)[C@H](NC(=O)CN)C(=O)NCC(=O)N[C@@H](C)C(=O)N[C@H](C(=O)N[C@@H](CC(C)C)C(=O)N[C@@H](CCCCN)C(=O)N[C@H](C(=O)N[C@@H](CC(C)C)C(=O)N[C@H](C(=O)N[C@H](C(=O)NCC(=O)N[C@@H](CC(C)C)C(=O)N1CCC[C@H]1C(=O)N[C@@H](C)C(=O)N[C@@H](CC(C)C)C(=O)N[C@H](C(=O)N[C@@H](CO)C(=O)N[C@@H](Cc1c[nH]c2ccccc12)C(=O)N[C@H](C(=O)N[C@@H](CCCCN)C(=O)N[C@@H](CCCNC(=N)N)C(=O)N[C@@H](CCCCN)C(=O)N[C@@H](CCCNC(=N)N)C(=O)N[C@@H](CCC(N)=O)C(=O)N[C@@H](CCC(N)=O)C(N)=O)[C@@H](C)CC)[C@@H](C)CC)[C@@H](C)O)[C@@H](C)O)C(C)C)C(C)C [Compound 10, Melittin]	4 to 8 µM	0.2 µM	3 µM	0.3 µM	0.2 µM	0.5 µM	0.8 µM
CC[C@H](C)[C@H](NC(=O)CNC(=O)[C@H](CCC(N)=O)NC(=O)CNC(=O)[C@@H](NC(=O)[C@H](CCCCN)NC(=O)[C@H](CCC(=O)O)NC(=O)[C@@H](NC(=O)[C@H](CCCCN)NC(=O)[C@H](CCCCN)NC(=O)[C@H](Cc1ccccc1)NC(=O)[C@H](CC(C)C)NC(=O)[C@H](CCCCN)NC(=O)[C@H](Cc1c[nH]c2ccccc12)NC(=O)[C@@H](N)CCCCN)[C@@H](C)CC)C(C)C)C(=O)NCC(=O)N[C@@H](C)C(=O)N[C@H](C(=O)N[C@@H](CC(C)C)C(=O)N[C@@H](CCCCN)C(=O)N[C@H](C(=O)N[C@@H](CC(C)C)C(=O)N[C@H](C(=O)N[C@H](C(=O)NCC(=O)N[C@@H](CC(C)C)C(N)=O)[C@@H](C)O)[C@@H](C)O)C(C)C)C(C)C [Compound 3]	> 200 µM	–	–	–	–	–	–
CC[C@@H](C)[C@@H](NC(=O)CNC(=O)[C@H](NC(=O)[C@@H](CCCCN)NC(=O)[C@@H](CCCCN)NC(=O)[C@@H](Cc1ccccc1)NC(=O)[C@@H](CC(C)C)NC(=O)[C@@H](CCCCN)NC(=O)[C@@H](Cc1c[nH]c2ccccc12)NC(=O)[C@H](N)CCCCN)[C@H](C)CC)C(=O)NCC(=O)N[C@H](C)C(=O)N[C@@H](C(=O)N[C@H](CC(C)C)C(=O)N[C@H](CCCCN)C(=O)N[C@@H](C(=O)N[C@H](CC(C)C)C(=O)N[C@@H](C(=O)N[C@@H](C(=O)NCC(=O)N[C@H](CC(C)C)C(=O)N1CCC[C@@H]1C(=O)N[C@H](C)C(=O)N[C@H](CC(C)C)C(=O)N[C@@H](C(=O)N[C@H](CO)C(N)=O)[C@H](C)CC)[C@H](C)O)[C@H](C)O)C(C)C)C(C)C [Compound 7]	> 400 µM	–	–	–	–	–	–
GIGKFLHSAKKFGKAFVGEIMNS-NH2 [Compound 8]	300 µM	300 µM	30 µM	8 µM	3 µM	4 µM	4 µM
CC[C@@H](C)[C@@H](NC(=O)CN)C(=O)NCC(=O)N[C@H](CCCCN)C(=O)N[C@H](Cc1ccccc1)C(=O)N[C@H](CC(C)C)C(=O)N[C@H](Cc1c[nH]cn1)C(=O)N[C@H](CO)C(=O)N[C@H](C)C(=O)N[C@H](CCCCN)C(=O)N[C@H](CCCCN)C(=O)N[C@H](Cc1ccccc1)C(=O)NCC(=O)N[C@H](CCCCN)C(=O)N[C@H](C)C(=O)N[C@H](Cc1ccccc1)C(=O)N[C@@H](C(=O)NCC(=O)N[C@H](CCC(=O)O)C(=O)N[C@@H](C(=O)N[C@H](CCSC)C(=O)N[C@H](CC(N)=O)C(=O)N[C@H](CO)C(N)=O)[C@H](C)CC)C(C)C [Compound 9] (HELM PEPTIDE1{G.[dI].G.[dK].[dF].[dL].[dH].[dS].[dA].[dK].[dK].[dF].G.[dK].[dA].[dF].[dV].G.[dE].[dI].[dM].[dN].[dS].[am]}$$$$V2.0)	> 400 µM	100 µM	30 µM	4 µM	3 µM	3 µM	1 µM
